Peptide text beside a SMILES is read from it. * marks the point of attachment. MeOSuc = COC(=O)CCC(=O)*; Cbz = O=C(OCc1ccccc1)*; Boc = CC(C)(C)OC(=O)*; CF3 = FC(F)(F)*
Key:
[1] = Binding affinity against human Elastase for more active diasteriomer
[2] = molecular target: Neutrophil elastase (Homo sapiens) (UniProt P08246); assay: Binding affinity against human Elastase
[3] = molecular target: Cathepsin G (Rattus norvegicus); assay: Binding affinity against rat Cathepsin G

Chain of Neutrophil elastase (Homo sapiens) (P08246 whole entry, looked up): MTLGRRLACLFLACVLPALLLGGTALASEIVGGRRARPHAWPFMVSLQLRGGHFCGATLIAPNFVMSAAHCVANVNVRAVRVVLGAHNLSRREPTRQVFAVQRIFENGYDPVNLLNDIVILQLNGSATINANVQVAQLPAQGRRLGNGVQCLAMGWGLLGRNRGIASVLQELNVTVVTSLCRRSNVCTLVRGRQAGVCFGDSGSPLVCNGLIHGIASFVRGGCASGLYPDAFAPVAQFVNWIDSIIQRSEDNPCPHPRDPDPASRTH

Row | Structure (SMILES) | Ki [1] | also measured
1 | CCOC(=O)C(F)(F)C(=O)[C@@H](NC(=O)[C@@H]1CCCN1C(=O)[C@H](C)NC(=O)[C@H](C)NC(=O)CCC(=O)OC)C(C)C | 4300 nM | 
2 | CC(=O)N[C@@H](C)C(=O)N[C@@H](C)C(=O)N1CCC[C@H]1C(=O)N[C@@H](C)C(=O)C(F)(F)F (Ac-AAPA-CF3) |  | Ki [2]: 24000 nM
3 | COC(=O)CCC(=O)N[C@H](C(=O)N1CCC[C@H]1C(=O)N[C@@H](Cc1ccccc1)C(=O)C(F)(F)F)C(C)C (MeOSuc-Val-Pro-Phe-CF3) |  | Ki [3]: 200 nM

Continued, in another order:

Row | Ki [1] | Structure (SMILES) | also measured
4 | 0.58 nM | COC(=O)CCC(=O)NCCCC[C@H](NS(=O)(=O)C12CC3CC(CC(C3)C1)C2)C(=O)N1CCC[C@H]1C(=O)N[C@H](C(=O)C(F)(F)F)C(C)C | 
5 | 850 nM | COC(=O)C(=O)[C@H](C)NC(=O)[C@@H]1CCCN1C(=O)[C@H](C)NC(=O)[C@@H]1CCCN1C(C)=O | 
6 | 44 nM | CC(C)[C@H](NC(=O)[C@@H]1CCCN1C(=O)[C@H](C)NC(=O)[C@H](C)NC(=O)OC(C)(C)C)C(=O)C(F)(F)F (Boc-AAPV-CF3) | 
7 | 1 nM | CC(C)[C@H](NC(=O)[C@@H]1CCCN1C(=O)[C@H](C)NC(=O)[C@H](C)NC(=O)OCc1ccccc1)C(=O)C(F)(F)F (Cbz-AAPV-CF3) | 
